The text below walks through data of ChEMBL document CHEMBL3414489, “3,4-Diaza-bicyclo[4.1.0]hept-4-en-2-one phenoxypropylamine analogs of irdabisant (CEP-26401) as potent histamine-3 receptor inverse agonists with robust wake-promoting activity” (Eur J Med Chem, 2015).

The Ki is the equilibrium dissociation constant of an inhibitor or competing ligand from its target. As usually defined, the half-life is the time needed for the level to fall by half in the phase considered. One may read the IC50 as the midpoint of a concentration-inhibition curve. What is called solubility is how much of the substance goes into solution per volume. A word on the Papp: it is the rate of passage across a membrane or cell layer, normalised by area and donor concentration. A word on the clearance: it is the rate of elimination divided by the concentration. What is called AUC(0-t) is exposure summed from dosing to a finite time, without extrapolation to infinity. As usually defined, the Cmax is the maximum level reached in the sampled fluid or tissue. One may read the bioavailability as dose-corrected exposure relative to a reference, in per cent. For orientation: ED50 means the dose at which the effect has come halfway, by size or by number of responders. By EC50 is commonly meant the concentration at which the effect is half-maximal.

The target of series [1] is T1, Histamine H3 receptor (Homo sapiens, UniProt Q9Y5N1). Nature of the series: Binding affinity to human histamine H3 receptor.
Series [2] addresses Histamine H3 receptor (Rattus norvegicus, UniProt Q9QYN8). Briefly: Binding affinity to rat histamine H3 receptor.
Series [3] is described as follows: Half life in mouse liver microsomes. Format: ADME.
A short description of series [4]: Half life in rat liver microsomes. Format: ADME. A general note: Liver microsomes are a subcellular fraction often used to study metabolism.
Series [5] in a line: Half life in monkey liver microsomes. Format: ADME, Macaca mulatta. The settings on record: rhesus monkey.
The nature of series [6]: Half life in human liver microsomes. Format: ADME.
A further series deals with T2, Cytochrome P450 1A2 (Homo sapiens, UniProt P05177).
T2 sequence (P05177 whole entry): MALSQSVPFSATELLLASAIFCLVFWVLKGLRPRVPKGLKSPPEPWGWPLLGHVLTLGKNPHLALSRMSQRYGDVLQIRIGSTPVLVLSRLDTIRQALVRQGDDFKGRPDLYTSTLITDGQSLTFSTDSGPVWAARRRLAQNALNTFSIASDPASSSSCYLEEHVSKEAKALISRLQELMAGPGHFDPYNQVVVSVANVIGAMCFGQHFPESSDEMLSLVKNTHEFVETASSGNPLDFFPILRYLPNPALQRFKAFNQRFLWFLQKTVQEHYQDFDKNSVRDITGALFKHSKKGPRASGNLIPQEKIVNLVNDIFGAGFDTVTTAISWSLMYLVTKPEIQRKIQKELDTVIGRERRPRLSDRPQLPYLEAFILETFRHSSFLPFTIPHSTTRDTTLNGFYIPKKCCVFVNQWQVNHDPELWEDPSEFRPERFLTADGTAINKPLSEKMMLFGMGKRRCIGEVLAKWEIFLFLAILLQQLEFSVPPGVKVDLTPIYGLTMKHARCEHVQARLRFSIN
Nature of the series: Inhibition of CYP1A2 (unknown origin). Format: ADME.

For a further series, the target named is Histamine H1 receptor (Homo sapiens, UniProt P35367). Briefly: Inhibition of human H1R.
Another series has as its target Histamine H2 receptor (Homo sapiens, UniProt P25021). Nature of the series: Inhibition of human H2R.
The target in a further series is Histamine H4 receptor (Homo sapiens, UniProt Q9H3N8). Nature of the series: Inhibition of human H4R.
The target of series [7] is Sodium-dependent dopamine transporter (Homo sapiens, UniProt Q01959). Briefly: Inhibition of DAT (unknown origin).
Series [8] deals with T3, Alpha-2C adrenergic receptor (Homo sapiens, UniProt P18825).
T3 sequence (P18825 whole entry): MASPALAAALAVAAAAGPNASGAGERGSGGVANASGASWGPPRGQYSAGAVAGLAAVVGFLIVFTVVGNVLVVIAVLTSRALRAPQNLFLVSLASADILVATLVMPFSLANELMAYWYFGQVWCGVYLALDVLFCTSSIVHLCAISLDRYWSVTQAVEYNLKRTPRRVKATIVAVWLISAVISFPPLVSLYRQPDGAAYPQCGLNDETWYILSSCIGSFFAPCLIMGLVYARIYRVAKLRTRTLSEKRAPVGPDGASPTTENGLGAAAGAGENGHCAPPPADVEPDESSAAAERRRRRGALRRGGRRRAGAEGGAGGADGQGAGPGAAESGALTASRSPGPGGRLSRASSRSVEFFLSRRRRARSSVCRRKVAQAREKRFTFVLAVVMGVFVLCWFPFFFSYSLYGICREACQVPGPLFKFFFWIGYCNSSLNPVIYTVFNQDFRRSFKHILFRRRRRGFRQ
Briefly: Inhibition of alpha-2C adrenergic receptor (unknown origin).

A short description of series [9]: Aqueous solubility of the compound at pH 7.4. Format: physicochemical.
Series [10] is described as follows: Aqueous solubility of the compound at pH 2. Format: physicochemical.
Series [11] is described as follows: Permeability across human Caco2 cells. Format: ADME, cell-based. The note with it: Caco-2.
Series [12] in a line: Plasma protein binding in rat. Format: ADME, cell-free. The note with it: read-out: PPB (converted).
A short description of series [13]: Plasma protein binding in dog. Format: ADME, cell-free, Canis lupus familiaris. The settings on record: read-out: PPB (converted).
Series [14] can be described thus: Plasma protein binding in human. Format: ADME, cell-free. The settings on record: read-out: PPB (converted).
Series [15] is described as follows: Half life in rat at 1 mg/kg, iv. Format: ADME, organism-based. Also on record: dose 1 mg/kg, route intravenous. The note with it: in vivo.
The nature of series [16]: Volume of distribution at steady state in rat at 1 mg/kg, iv. Format: ADME, organism-based. Details: dose 1 mg/kg, route intravenous. The settings on record: in vivo, read-out: Vdss.
The nature of series [17]: Clearance in rat at 1 mg/kg, iv. Format: ADME, organism-based. The settings on record: in vivo. Also on record: dose 1 mg/kg, route intravenous.
Series [18] in a line: AUC (0 to t) in rat at 10 mg/kg, po. Details: dose 10 mg/kg, route oral. The settings on record: plasma. Format: ADME, organism-based.
The nature of series [19]: Cmax in rat at 10 mg/kg, po. The note with it: in vivo. Also on record: dose 10 mg/kg, route oral. Format: ADME, organism-based.
Series [20] in a line: Oral bioavailability in rat at 10 mg/kg. Format: ADME, organism-based. The settings on record: in vivo.
Series [21] can be described thus: Ratio of drug level in brain to plasma in rat at 10 mg/kg, ip after 2 hrs. Format: ADME, organism-based. Also on record: dose 10 mg/kg, route intraperitoneal. The note with it: read-out: BPR.
The species named for series [22] is Rattus norvegicus. Briefly: Inhibition of RAMH-induced dipsogenia in rat. Format: functional.
In series [23] the test system is Rattus norvegicus. Nature of the series: Wake promoting activity in rat EEG/EMG model assessed as AUC of cumulative wake at 3 mg/kg, ip up to 4 hrs relative to vehicle-treated control. Format: functional, organism-based. Also on record: dose 3 mg/kg, time < 4 hr.
Series [24] has as its system Rattus norvegicus. Briefly: Wake promoting activity in rat EEG/EMG model assessed as AUC of cumulative wake at 30 mg/kg, ip up to 5.5 hrs relative to vehicle-treated control. Also on record: dose 30 mg/kg, time < 5.5 hr. Format: functional, organism-based.
Series [25] relates to Rattus norvegicus. Nature of the series: Toxicity in rat at 3 to 30 mg/kg, ip. Format: organism-based. Also on record: dose 3-30 mg/kg, route intraperitoneal. The note with it: in vivo.
In series [26] the test system is Rattus norvegicus. Nature of the series: Toxicity in po dosed rat. Format: organism-based. The settings on record: in vivo.
Series [27] concerns Rattus norvegicus. Briefly: Wake promoting activity in rat EEG/EMG model assessed as cumulative wake time at 3 mg/kg, ip after 22 hrs relative to vehicle-treated control. Format: functional. The note with it: route intraperitoneal.
Series [28] has as its system Rattus norvegicus. Nature of the series: Wake promoting activity in rat EEG/EMG model assessed as cumulative wake time at 10 mg/kg, ip after 22 hrs relative to vehicle-treated control. Format: functional. The settings on record: route intraperitoneal.
Series [29] has as its system Rattus norvegicus. Briefly: Wake promoting activity in rat EEG/EMG model assessed as cumulative wake time at 30 mg/kg, ip after 22 hrs relative to vehicle-treated control. Format: functional. The note with it: route intraperitoneal.
Series [30] has as its target T1, Histamine H3 receptor. Nature of the series: Inverse agonist activity at human H3R expressed in CHO cells assessed as inhibition of RAMH-induced [35S]GTPgammaS binding relative to control. Format: functional, cell-based. Background: Binding of GTPγS marks nucleotide exchange on a G protein.
The species entered for series [31] is Rattus norvegicus. The note with it: 10 mg/kg.
For series [32], the species on record is Rattus norvegicus. The note with it: 30 mg/kg.

Structures are written as SMILES.

T1 sequence (Q9Y5N1 whole entry): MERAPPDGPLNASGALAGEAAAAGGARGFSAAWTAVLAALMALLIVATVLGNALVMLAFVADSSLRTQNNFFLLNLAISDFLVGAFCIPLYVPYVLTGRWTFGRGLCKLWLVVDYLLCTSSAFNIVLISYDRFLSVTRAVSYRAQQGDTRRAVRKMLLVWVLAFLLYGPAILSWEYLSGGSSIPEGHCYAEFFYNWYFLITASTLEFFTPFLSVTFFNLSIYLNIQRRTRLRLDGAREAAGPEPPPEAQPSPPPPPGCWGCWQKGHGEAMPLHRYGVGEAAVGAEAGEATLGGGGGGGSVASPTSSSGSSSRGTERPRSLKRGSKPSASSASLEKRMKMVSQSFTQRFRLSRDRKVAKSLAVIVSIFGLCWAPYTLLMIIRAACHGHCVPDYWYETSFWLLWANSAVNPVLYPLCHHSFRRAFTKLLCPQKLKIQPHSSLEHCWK
Sequence of Histamine H3 receptor (Rattus norvegicus, UniProt Q9QYN8) (Q9QYN8 whole entry): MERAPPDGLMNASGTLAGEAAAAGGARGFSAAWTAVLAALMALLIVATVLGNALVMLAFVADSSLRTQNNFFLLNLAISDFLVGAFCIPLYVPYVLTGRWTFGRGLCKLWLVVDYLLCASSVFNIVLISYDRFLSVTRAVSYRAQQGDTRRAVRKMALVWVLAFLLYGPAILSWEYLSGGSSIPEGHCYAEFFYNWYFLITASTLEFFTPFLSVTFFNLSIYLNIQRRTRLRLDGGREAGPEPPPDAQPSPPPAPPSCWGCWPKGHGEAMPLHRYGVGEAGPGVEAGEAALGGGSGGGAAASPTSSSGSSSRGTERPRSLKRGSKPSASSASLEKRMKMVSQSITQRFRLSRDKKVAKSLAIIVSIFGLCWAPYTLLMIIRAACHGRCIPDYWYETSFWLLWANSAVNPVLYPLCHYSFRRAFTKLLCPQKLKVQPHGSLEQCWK
Sequence of Histamine H1 receptor (P35367 whole entry): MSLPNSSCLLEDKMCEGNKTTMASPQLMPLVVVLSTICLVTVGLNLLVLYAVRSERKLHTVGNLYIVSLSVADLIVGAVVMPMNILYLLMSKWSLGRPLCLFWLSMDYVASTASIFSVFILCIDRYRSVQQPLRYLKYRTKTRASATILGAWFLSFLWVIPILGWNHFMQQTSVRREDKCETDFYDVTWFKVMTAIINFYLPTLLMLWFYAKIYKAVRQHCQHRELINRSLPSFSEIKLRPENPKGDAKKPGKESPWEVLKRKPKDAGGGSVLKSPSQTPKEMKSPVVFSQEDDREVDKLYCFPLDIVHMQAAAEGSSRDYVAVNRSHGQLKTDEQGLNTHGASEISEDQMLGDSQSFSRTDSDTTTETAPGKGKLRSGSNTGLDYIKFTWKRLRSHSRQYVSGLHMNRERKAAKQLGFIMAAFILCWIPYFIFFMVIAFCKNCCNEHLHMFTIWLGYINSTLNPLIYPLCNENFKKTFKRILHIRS
Sequence of Histamine H4 receptor (Q9H3N8 whole entry): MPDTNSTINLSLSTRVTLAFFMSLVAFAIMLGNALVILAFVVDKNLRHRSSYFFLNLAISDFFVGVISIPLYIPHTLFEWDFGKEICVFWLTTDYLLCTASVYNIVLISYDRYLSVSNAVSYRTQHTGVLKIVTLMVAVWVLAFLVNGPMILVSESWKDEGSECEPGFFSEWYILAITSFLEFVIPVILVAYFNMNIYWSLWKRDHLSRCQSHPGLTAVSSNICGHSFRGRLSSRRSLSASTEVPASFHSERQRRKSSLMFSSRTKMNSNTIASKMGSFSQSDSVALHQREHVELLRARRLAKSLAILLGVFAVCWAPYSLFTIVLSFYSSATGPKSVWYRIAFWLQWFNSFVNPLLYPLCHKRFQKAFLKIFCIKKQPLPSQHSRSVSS
Sequence of Histamine H2 receptor (P25021 whole entry): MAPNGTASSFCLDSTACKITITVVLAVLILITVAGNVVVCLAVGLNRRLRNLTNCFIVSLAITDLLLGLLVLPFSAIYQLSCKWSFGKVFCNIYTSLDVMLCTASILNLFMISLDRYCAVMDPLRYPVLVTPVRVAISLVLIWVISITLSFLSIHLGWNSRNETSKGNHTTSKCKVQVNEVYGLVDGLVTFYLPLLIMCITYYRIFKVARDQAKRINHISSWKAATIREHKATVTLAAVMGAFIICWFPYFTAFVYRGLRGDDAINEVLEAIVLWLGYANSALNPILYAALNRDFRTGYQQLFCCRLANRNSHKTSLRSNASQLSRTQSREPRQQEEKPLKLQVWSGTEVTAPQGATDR
Sequence of Sodium-dependent dopamine transporter (Q01959 whole entry): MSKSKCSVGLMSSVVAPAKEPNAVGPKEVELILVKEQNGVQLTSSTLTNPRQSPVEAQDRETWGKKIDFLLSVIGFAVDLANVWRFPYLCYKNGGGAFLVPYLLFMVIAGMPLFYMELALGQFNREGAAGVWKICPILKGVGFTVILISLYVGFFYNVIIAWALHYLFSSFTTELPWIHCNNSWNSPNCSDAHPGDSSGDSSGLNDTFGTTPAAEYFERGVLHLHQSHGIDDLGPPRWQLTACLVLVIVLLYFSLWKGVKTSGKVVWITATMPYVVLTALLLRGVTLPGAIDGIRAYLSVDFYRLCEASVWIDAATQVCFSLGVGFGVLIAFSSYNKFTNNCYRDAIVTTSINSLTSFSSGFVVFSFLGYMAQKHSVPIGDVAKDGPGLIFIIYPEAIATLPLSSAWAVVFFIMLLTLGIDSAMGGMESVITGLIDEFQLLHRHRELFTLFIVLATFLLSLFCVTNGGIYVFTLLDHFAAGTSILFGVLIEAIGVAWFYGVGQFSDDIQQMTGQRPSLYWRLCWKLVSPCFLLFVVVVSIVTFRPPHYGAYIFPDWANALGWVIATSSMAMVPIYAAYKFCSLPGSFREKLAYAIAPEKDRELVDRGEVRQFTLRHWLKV

Regarding `C[C@@H]1CCCN1CCCOc1ccc(C2=NNC(=O)[C@H]3C[C@@H]23)cc1`, the Ki at Histamine H3 receptor [1] is 4.5 nM; at Histamine H3 receptor [2], 14 nM; at Histamine H1 receptor, above 10000 nM; on Histamine H2 receptor, above 10000 nM; at Histamine H4 receptor, above 10000 nM; in [7], 6600 nM. Further, the inhibitory constant (Ki) in series [8] was found to be 1800 nM. Further, the half-life in [3] is above 40 min; in [4], above 40 min; in series [5] it was above 40 min; in series [6], above 40 min; in series [15], 84 min. Further, the half-inhibitory concentration (IC50) against Cytochrome P450 1A2 was above 30000 nM. Also, the solubility in [9] and in series [10] was above 4000 µg/mL each time. In [11], this molecule had a Papp of 15.7 ×10⁻⁶ cm/s. The fraction unbound in series [12] is 0.46; in series [13] it was 0.47; in series [14], 0.39. In addition, the Vd in [16] turned out to be 2.5 L/kg. In series [17], this molecule yielded a clearance of 20 mL/min/kg. The exposure AUC(0-t) in series [18] came out at 4660 ng·h/mL. The peak level in series [19] (Cmax) was 738 ng/mL. In addition, the bioavailability in series [20] came to 46%. In series [21], the Kp at 2 h came out at 3.1. Further, the Activity result was “Dose-dependent effect” in the series filed under Rattus norvegicus [22], “Non-toxic” in the series on Rattus norvegicus [25] and “Non-toxic” with Rattus norvegicus [26]. The molecule also displayed a median effective dose (ED50) in the series filed under Rattus norvegicus [22] of 0.21 mg/kg. The AUC with Rattus norvegicus [23] came out at 134 min; in the series with Rattus norvegicus [24] it was 231 min; in the series listed under Rattus norvegicus [31], 192 min; in the series filed under Rattus norvegicus [32], 221 min. The results for the Time in the series on Rattus norvegicus [27], in the series with Rattus norvegicus [28] and in the series with Rattus norvegicus [29] were 85 min, 106 min and 130 min, respectively. Besides, on Histamine H3 receptor [30], the EC50 was 0.6 nM.

In the case of `C[C@H]1CCCN1CCCOc1ccc(C2=NNC(=O)C3CC23)cc1` (mixture of isomers), the figures for the Ki on Histamine H3 receptor [1] and at Histamine H3 receptor [2] were 13 nM and 57 nM, respectively.
